By IC50 is commonly meant the concentration needed to halve the response being measured. A word on the CC50: it is the concentration that lowers cell viability or growth by half. One may read the EC50 as the concentration needed to bring the measured effect to its halfway point.

Data on 27 compounds can be found in ChEMBL document CHEMBL5528001, “Synthetic product-based approach toward potential antileishmanial drug development” (Eur J Med Chem, 2024).

SMILES strings stand for the structures. ≈ marks a conversion by molar mass, not a printed value. Where only a bound is given, the exact number is not on record here.

Series [1] concerns Leishmania mexicana. Kind of series: Antileishmanial activity against Leishmania mexicana promastigotes. It is filed as functional, organism-based.
Series [2] relates to Leishmania infantum. The experiment in a line: Antileishmanial activity against Leishmania infantum promastigote assessed as reduction in parasite growth after 72 hrs by MTT assay. It is filed as functional, organism-based. In general terms: Formazan colour is commonly taken as a measure of viable cells.
Series [3] concerns J774.A1. Kind of series: Cytotoxicity against mouse J774.A1 cells assessed as reduction in cell viability incubated for 72 hrs by MTT assay. It is filed as functional.
The nature of series [4]: Selectivity index, ratio of CC50 for human HepG2 cells to EC50 for GFP-expressing Leishmania infantum intracellular amastigotes infected in human THP-1 derived macrophage cells. It is filed as toxicity, cell-based. Particulars: read-out: Ratio CC50/EC50.
Series [5] concerns Leishmania tropica. Kind of series: Antileishmanial activity against Leishmania tropica promastigotes incubated for 24 hrs measured by alamar blue staining based fluorescence analysis. The series is classed as functional, organism-based. Background: Alamar Blue is a resazurin reagent that responds to reducing activity.
Series [6] relates to Leishmania amazonensis. The experiment in a line: Antileishmanial activity against Leishmania amazonensis promastigotes assessed as inhibition of parasite growth. The series is classed as functional. On the set-up: scale not given: the % may be the effect or the level left.
The subject of series [7] is Leishmania aethiopica. Kind of series: Antileishmanial activity against Leishmania aethiopica amastigotes assessed as inhibition of parasite growth measured after 24 hrs by Alamar blue based analysis. It is filed as functional, organism-based.
The test system of series [8] is HepG2. Kind of series: Antiproliferative activity against human HepG2 cells assessed as reduction in cell viability incubated for 72 hrs by MTT assay. It is filed as functional, cell-based. The conditions noted are these: HepG2, 72 h.
For series [9], the system named is Leishmania donovani. The experiment in a line: Antileishmanial activity against Leishmania donovani MHOM/SD/62/1S assessed as inhibition of parasite growth by resazurin/alamar blue fluorometric assay. It is filed as functional, organism-based.
The test system of series [10] is Leishmania donovani. The experiment in a line: Antileishmanial activity against Leishmania donovani 9515 promastigotes assessed as inhibition of parasite growth incubated for 48 hrs by resazurin dye based assay. It is filed as functional, organism-based. Particulars: Leishmania donovani, 9515, 48 h.
Series [11] relates to Leishmania major. Kind of series: Antileishmanial activity against Leishmania major IR-173 promastigotes assessed as inhibition of parasite growth incubated for 48 hrs by resazurin dye based assay. It is filed as functional, organism-based. Particulars: IR-173, 48 h.
Series [12] deals with Leishmania donovani. Kind of series: Antileishmanial activity against Leishmania donovani promastigotes assessed as parasite growth inhibition incubated for 72 hrs by alamar blue staining based assay. It is filed as functional, organism-based.
Series [13] deals with Leishmania amazonensis. Kind of series: Antileishmanial activity against Leishmania amazonensis IFLA/BR/1967/PH8 amastigotes infected in murine peritoneal macrophages incubated for 24 hrs by Giemsa staining based analysis. It is filed as functional, organism-based. Particulars: IFLA/BR/1967/PH8, 24 h.
In series [14] the test system is Leishmania donovani. Kind of series: Antileishmanial activity against Leishmania donovani promastigotes assessed as inhibition of parasite growth. The series is classed as functional, organism-based.
The test system of series [15] is Leishmania major. Kind of series: Antileishmanial activity against Leishmania major amastigotes assessed as reduction in parasite viability measured for 72 hrs by Giemsa-staining based microscopic analysis. The series is classed as functional, organism-based.
Series [16] deals with Leishmania major. The experiment in a line: Antileishmanial activity against Leishmania major promastigotes assessed as reduction in parasite viability measured after 72 hrs by Giemsa-staining based microscopic analysis. It is filed as functional, organism-based.
The test system of series [17] is Leishmania donovani. The experiment in a line: Antileishmanial activity against Leishmania donovani MHOM/SD/62/1S-CL2D promastigotes assessed as reduction in parasite growth incubated for 24 hrs by resazurin dye based analysis. The series is classed as functional, organism-based.
Series [18] deals with Leishmania donovani. The experiment in a line: Antileishmanial activity against Leishmania donovani MHOM/IN/00/DEVI assessed as inhibition of parasite growth measured for 48 hrs by MTT assay. The series is classed as functional, organism-based.
The subject of series [19] is HepG2. Kind of series: Cytotoxicity against human HepG2 cells assessed as reduction in cell growth measured after 48 hrs by SRB assay. It is filed as functional.
A short description of series [20]: Cytotoxicity against HEK293 cells assessed as reduction in cell viability incubated for 6 days by CellTiter-Glo luminescent cell viability assay. Particulars: human. The series is classed as toxicity, cell-based. (In general: Cellular ATP, detected with luciferase, serves as a proxy for viable cell number.)
Series [21] concerns Leishmania donovani. The experiment in a line: Antileishmanial activity against Leishmania donovani amastigotes assessed as parasite growth inhibition incubated for 72 hrs by MTS assay. It is filed as functional, organism-based.
Series [22] deals with Leishmania donovani. Kind of series: Antileishmanial activity against Leishmania donovani amastigotes. The series is classed as functional, organism-based.
For series [23], the system named is Leishmania donovani. The experiment in a line: Antileishmanial activity against Leishmania donovani promastigotes assessed as parasitic proliferation inhibition incubated for 3 days by resazurin dye based assay. It is filed as functional, organism-based.
The nature of series [24]: Cytotoxicity against African green monkey Vero cells assessed as reduction in cell growth. The series is classed as toxicity, cell-based, Chlorocebus sabaeus.
Series [25] has as its system Leishmania braziliensis. The experiment in a line: Antileishmanial activity against Leishmania braziliensis promastigotes. It is filed as functional, organism-based.

`COc1cc(C(=O)/C=C/c2cccc([N+](=O)[O-])c2)ccc1OCC=C(C)C` came in with a concentration for half-maximal inhibition (IC50) in series [1] of 4.57 µM.
Regarding `CC1(C)CC(=O)c2cc(CNC(=O)C/C=C/c3ccccc3)ccc2S1`, the IC50 in series [2] was found to be 10.5 µM. Moreover, the CC50 in series [3] was 31.6 µM.
With `Nc1ccn(C(=O)C2CCC3(CC2)OOC2(O3)C3CC4CC(C3)CC2C4)n1` (stereo not given), the selectivity ratio in series [4] was below 5. Also, the IC50 in [5] was 161 µM.
As to `CC(C)CC1NC(=S)NC1=O` (stereo not given), the Activity in [6] is recorded as 32%.
Regarding `NC(=O)[C@@H]1CSC(c2cn(-c3ccccc3)nc2-c2ccccc2)N1` (stereo not given in full), the IC50 in [7] stood at 1.02 µg/mL (≈ 2.91 µM).
Consider `Cc1cc(C)cc(-n2cc(CNC(=O)c3c(C)nc4c5ccccc5c5ccccc5n34)nn2)c1`, for which, in [8], the concentration giving a half-maximal response (EC50) was below 30 µM.
Consider `O=C(N/N=C/c1ccc([N+](=O)[O-])o1)c1ccc(OCc2ccc(F)cc2)cc1`, for which the IC50 in series [9] worked out at 0.23 µM; in [10] it was 0.86 µM; in [11], 0.28 µM.
`CN(C)CCCNC(=O)c1ccc2cc(Cl)ccc2n1`: the 50% inhibitory concentration (IC50) in series [12] was 5.85 µM.
In turn, `O=C(C[Se]CC(=O)Nc1ccc([N+](=O)[O-])cc1)Nc1ccc([N+](=O)[O-])cc1` yielded an IC50 in [13] of 10.8 µM.
On to `Cc1cc(O)c(C(=O)Nc2ccccc2)c(=O)n1Cc1ccc(Cl)cc1`, for which, in [14], the IC50 turned out to be 55 µM.
In the case of `COc1cc(C(=O)/C=C/c2ccc([N+](=O)[O-])cc2)ccc1OCC=C(C)C`, the IC50 in [1] was 8.22 µM.
Consider `Cc1cc(O)c(C(=O)Nc2ccc(Br)cc2)c(=O)n1C1CC1`, for which the IC50 in series [14] came to 55 µM.
In the case of `Cc1ccc(-n2cc(C3N[C@H](C(N)=O)CS3)c(-c3ccccc3)n2)cc1` (stereo not given in full), the IC50 in [7] is 1.02 µg/mL (≈ 2.8 µM).
For `CCOC(=O)C1=C(C)NC(C)=C(C(=O)OCC)C1c1cccc(Cl)c1`, the EC50 came to 2.2 µM in series [15] and 10.5 µM in series [16].
As for `CCCCCCCCCCCCCCCC(=O)CC(=O)N1CCC[C@H]1COP(=O)([O-])OCC[N+](C)(C)C`, the half-inhibitory concentration (IC50) in series [17] came out at 52.6 µM.
With `C(=N/CCCN(N1CCOCC1)N1CCOCC1)/c1cc(-c2ccccc2)c2ccc3c(-c4ccccc4)cc(/C=N/CCCN(N4CCOCC4)N4CCOCC4)nc3c2n1`, in series [18], the IC50 turned out to be 2.52 µM. In addition, the cytotoxic concentration (CC50) in [19] came to 1.64 µM.
With `CCCCCCCn1cc(CN2C(=O)CN(/N=C/c3ccc([N+](=O)[O-])o3)C2=O)nn1`, the concentration for half-maximal inhibition (IC50) at 6 days in series [20] is above 100 µM. For the same compound, the IC50 in series [21] turned out to be 0.18 µM; in [22], 0.38 µM.
Regarding `Cc1ccc(-n2cc(C3=NCCS3)c(-c3ccccc3)n2)cc1`, the IC50 in [7] came to 1.02 µg/mL (≈ 3.19 µM).
With `Cc1nc2c3ccccc3c3ccccc3n2c1C(=O)NCc1cn(-c2cccc([N+](=O)[O-])c2)nn1`, the EC50 in series [8] is below 30 µM.
`C/C=C1\NC(=S)NC1=O`: the Activity in series [6] is recorded as 28%.
Take `O=C(N/N=C/c1ccc([N+](=O)[O-])o1)c1ccc(OCc2ccccc2)cc1`: the half-maximal inhibitory concentration (IC50) in series [9] stood at 4.53 µM; in [10], 4.48 µM; in series [11], 38.5 µM.
With `COC(=O)C1=C(C)NC(C)=C(C(=O)OC)C1c1cccc(Cl)c1`, the EC50 in series [15] was determined as 5.4 µM.
In the case of `CCOC(=O)C1=CNC(=S)NC1c1ccc(Cl)cc1` (stereo not given), the IC50 in series [23] (Leishmania donovani, 72 h, read-out: IC50) is 29.3 µg/mL (≈ 98.7 µM).
Consider `COc1cc(/C=C/C(=O)c2ccccc2Cl)ccc1OCC=C(C)C`, for which the IC50 in series [1] was 8.04 µM.
On to `C#CCN1C(=O)CN(/N=C/c2ccc([N+](=O)[O-])o2)C1=O`, for which the IC50 at 6 days in series [20] was 88.5 µM. In addition, the figures for the IC50 in [21] and in [22] were 3.03 µM and 0.39 µM, respectively.
As to `Cc1cc(OCCCCNC(C)(C)C)cc2oc3cc(OCCCCNC(C)(C)C)cc(O)c3c(=O)c12`, the half-maximal inhibitory concentration (IC50) is 15.5 µM in [24] and 0.1 µM in series [25].
Turning to `CCOC(=O)C1=CNC(=O)NC1c1ccc(C)cc1` (stereo in doubt; 82), the half-inhibitory concentration (IC50) in series [23] is 28.3 µg/mL (≈ 109 µM).
